The values that follow come from patent US5177188A, “Methods and compositions for diagnosing chronic immune thrombocytopenic purpura” (The Scripps Research Institute, priority 1990, dated 1993).

A value given as a limit tells only on which side of the number the result lay.

Holding throughout (set-up): species or system human
Assay [1] deals with antipeptide antibody binding to GPIIIa peptides. The assay can be described thus: Inhibition of antipeptide antibody binding to GPIIIa peptides by platelets or purified GPIIb/IIIa. Conditions: plasma ITP-1, -2, -3 (1/10 dilution) preincubated with inhibitor. How it is done: (§1) To evaluate the ability of washed platelets, affinity-purified GPIIb/IIIa or synthetic peptides to block autoantibody binding, serial dilutions of platelets, GPIIb/IIIa or synthetic peptides (maximum addition: 10^10 platelets, 200 μg GPIIb/IIIa or 10 μg of peptide per 100 μl plasma, respectively) were incubated overnight at 4° C. with the patient's plasma. The preincubated plasma (100 μl 1/10 dilution) was added to replicate wells containing either GPIIb/IIIa from platelet lysate, affinity-purified GPIIb/IIIa or synthetic peptide, and antibody binding to each well was evaluated as describe above. Data were expressed as a percent of the binding of untreated plasma (% inhibition).
Three of the peptide-positive plasma samples (ITP-1, -2 and -3) were tested further; additional testing of ITP-4 and ITP-5 was not possible due to insufficient plasma.

Assay [2] deals with plasma autoantibodies (anti-GPIIIa) of chronic ITP patients. Description: Solid-phase radioimmunoassay: plasma autoantibody binding to well-bound synthetic GPIIIa peptide. How it is done:
Microtiter wells were activated with 100 μl of 0.1% glutaraldehyde in coating buffer (0.1M NaHCO3, pH 8.3) for 1 hr at room temperature (RT). Wells were washed twice with PBS and then incubated for 2 hr at PT with 1 μg of each synthetic peptide in 100 μl of coating buffer. After 6 washes with 0.05% Tween-20 (Sigma Chemical Co., St. Louis, MO) in PBS (wash buffer), each well was incubated with 200 μl of 2% BSA in wash buffer for 1 hr at RT. The wells were washed 6 times, followed by the addition to triplicate wells of 100 μl of plasma diluted 1/10 in wash buffer. After incubation for 1 hr and 6 washes, 100 μl of radiolabeled anti-human igG in wash buffer (100,000 cpm) was added to each well. After a final 1 hr incubation and 6 washes, well-bound radioactivity was determined. Data were expressed as a ratio: Mean cpm bound to GPIIIa peptide divided by mean cpm bound to control peptide (P10).
Nine synthetic peptides corresponding to different sequences within platelet GPIIIa (P1-P9, Table 1) were used as antigenic targets. A synthetic peptide of human HLA Class I heavy chain was used as a control (P10). Plasma from 13 patients with chronic ITP was studied. […] These 2 hydrophilic overlapping peptides are located at the carboxyterminal region of GPIIIa and together comprise the portion of the molecule considered to be the cytoplasmic domain. Plasma for patients ITP-1 and ITP-2 bound to peptide 9 with mean ratios of 32.4 (3 studies) and 5.8 (2 studies), respectively, while patient ITP-3 plasma bound to both peptides 8 and 9 (mean ratios of 13.3 and 3.3, respectively; 3 studies) and patients ITP-4 and ITP-5 bound to peptide 8 (mean ratios of 3.6, 2 studies and 9.4, 2 studies).

For assay [3], the system named is autoantibody binding to washed platelets. The assay can be described thus: Inhibition of autoantibody binding to washed platelets by peptide. How it is done: Washed platelets (3×10^7) were incubated with patient plasma (ITP-1-15 μl, ITP-2-60 μl, ITP-3-30 μl) in a total volume of 200 μl citrate buffer for 2 hrs at room temperature, followed by 4 washes. After resuspension in 300 μl of citrate buffer, platelets were lysed with 33 μl of 10% Triton X-100 in citrate buffer. Next, 100 μl of lysate was added to wells coated with murine anti-GPIIb. Bound antibody was detected with labeled anti-human IgG as described.
as §1
To evaluate the contribution of these antipeptide antibodies to the patients' total plasma anti-GPIIb/IIIa activity, the ITP plasmas were preincubated with serial dilutions of the appropriate peptide (8 or 9) and then tested in 4 different assays. In the first, the pretreated plasma was incubated with platelets. After washing and lysis, the GPIIb/IIIa complexes were captured on microtiter wells by monoclonal antibody. In the other 3 assays, pretreated plasma was added to microtiter wells coated directly with either peptide or affinity-purified GPIIb/IIIa (Aff-GPIIb/IIIa) or to microtiter wells with GPIIb/IIIa from plate let lysate immobilized by monoclonal antibody (Moab-GPIIb/IIIa). Antibody binding was detected in all assays with labeled antihuman IgG.

For “affinity-purified GPIIb/IIIa: GPIIb/IIIa complex eluted from an anti-GPIIb monoclonal antibody (2A9) column loaded with platelet extract”, in assay [1], the “inhibition of antibody reactivity of plasma with the GPIIIa peptides” value is “completely inhibited”.
Consider “ANNPLYKEATSTFTNITYRDT (ANNPLYDEATSTFTNITYRDT) [P9]”, for which the “mean binding ratio (cpm bound to GPIIIa peptide / cpm bound to control peptide P10)” value is reported as 32.4 in assay [2] (plasma of patient ITP-1, 1/10 dilution, 3 studies); 5.8 in assay [2] (plasma of patient ITP-2, 1/10 dilution, 2 studies); 3.3 in assay [2] (plasma of patient ITP-3, 1/10 dilution, 3 studies). Also, the “inhibition of autoantibody binding to washed platelets” value in assay [3] (plasma ITP-1 preincubated with peptide, 3 studies (range)) is 87.8-98.0; in assay [3] (plasma ITP-2 preincubated with peptide, 2 studies), 94.0%. Also, in assay [3] (plasma from ITP-1 and ITP-2 preincubated with peptide, summary in discussion), the “inhibition of antibody binding to both platelets and GPIIb/IIIa from platelet lysates” value is > 80%.
